Measured values as given in patent US7226947B1, “Use of creatine as a fat substitute” (AlzChem Trostberg GmbH, priority 1999, dated 2007).

Tested on: growing hens
Assay: Effect of addition of creatine in the feed for growing hens
Format: in vivo
Conditions: 0.2% creatine (0.2 g/kg) added to air-dried feed, growing period of 41 days
Source text: The effect of addition of creatine in the feed for growing hens was studied. It was found here that by adding 0.2% creatine […] to the air-dried feed for a growing period of 41 days, an increase in the final weight of 4% compared with previous feeding methods (without creatine addition) was achieved. […] The feed consumption decreased here by about 2–3% in comparison with previous feeding methods.

Question: How did the “decrease in feed consumption in comparison with previous feeding methods” value turn out when CN(CC(=O)O)C(=N)N [creatine] was run?
Answer: 2–3%

Question: And the “increase in the final weight compared with previous feeding methods (without creatine addition)” value?
Answer: 4%

Question: What about the meat quality of the same compound?
Answer: improved quality

Question: What about the “nature of the increase in weight (meat vs fat; lean body mass index)” value of the same compound?
Answer: only by increase in meat, but not by increase in fat
